Experimental data from patent US6011041A, “Use of anhydrovinblastine” (priority 1996, dated 2000).
Structures can show the parent of a compound that is named as a salt.

Key:
[1] = test system: fast axoplasmic transport in nerve cells; settings: cited from earlier work
[2] = relative to other vinca alkaloids; cited from earlier work
[3] = cited from earlier work; for dose limiting toxicity: humans
nerves = settings: vs vinblastine, vindesine; cited from earlier work
C-4 cells = assay: cytotoxicity on C-4 cells (FIG. 8); assay type: cell-based; settings: 72 h; C-4, 3 day incubation
Method: A wide range of drug concentrations were exposed to tumour cells growing at log phase in 96-well microtitre plates. Cell concentrations depended on the cell line as well as the length of time to be cultured. Typically, P388 cells were plated at a concentration of 30,000, 2,000 and 750 cells per well for studies lasting 1, 3 and 7 days, respectively MCF7 cells were plated at a concentration of 7,000 and 1,500 cells per well for studies lasting 3 and 7 days, respectively. H460 cells were plated at a concentration of 2,500 and 1,000 cells per well for studies lasting 3 and 7 days, respectively. K562 cells were plated at a concentration of 1,500 and 10,000 cells per well for studies lasting 1 and 3 days, respectively. LS180 cells were plated at a concentration of 5,000 and […] cells per well for studies lasting 3 and 7 days, respectively. After plating all cell lines were incubated (CO2 incubator at 37° C., 5% CO2) for 24 hours prior to addition of the cytotoxic agent (See Table 1). Subsequently the plates were incubated for the indicated time period. […] After the sample was mixed through repeated pipetting, the colored product was measured using a plate reader operating at 570 nm. The absorbance values obtained for cells cultured in the absence of drug was assumed to represent 100% viability. […]

SKOV3 cells = assay: cytotoxicity on SKOV3 cells (FIG. 8); assay type: cell-based; settings: Homo sapiens, SK-OV-3, 72 h; SKOV3, 3 day incubation
[4] = P388 tumour antitumor activity and maximum tolerated dose in BDF1 mice (FIGS. 6, 7); assay type: in vivo; settings: mouse, in vivo, iv; BDF1 mice bearing P388 tumors, single i.v. injection
Method: (§1) Antitumour studies in mice focused on the P388 leukemia model. […] This is an ascitic tumour model that was generated by intraperitoneal inoculation of 1×10^6 P388 cells (derived from culture, with an original cell line obtained from the NCI tumour repository) in BDF1 mice (Charles Rivers). One day after tumour cell inoculation, mice were treated with a single intravenous injection of drug. Animal weight was monitored daily and tumour progression was measured as an increase in animal weight and through estimation of survival time. Therapy was described by a decrease in tumour progression and an increase in survival time relative to an untreated control group. Initial studies established the maximum therapeutic dose for AHVB. Subsequently comparative studies with vincristine and navelbine were initiated where animals were treated with each drug at the maximum therapeutic dose.
(§2) The in vivo antitumour activity of AHVB was compared to that of vincristine, navelbine in the BDF1-murine P388 model in the procedure as follows. P388 cells were derived from the ascities of previously injected female BDF1 mice (19-21 grams) P388 cells, from the NCI tumor repository were inoculated directly into mice. The cells arrive from NCI frozen in 1 ml aliquots. These samples were thawed rapidly at 37° C. and subsequently injected (within 1 hour) intraperitoneally into two mice, 0.5 ml per mouse. One week (7 days) after inoculation, the tumor cells were harvested by removing peritoneal fluid using a sterile syringe with a 22 gauge needle. The cells, pooled from two animals, were counted using a heamocytometer, diluted (RPMI media) to a concentration of 2×10^6 cells/ml and 0.5 ml was then re-injected into each of two BDF1 mice. Remaining cells were washed and placed into a DMSO containing media and frozen (in freezer packs that cool at a defined rate). This process was repeated weekly over a […]. Cells used for anti-tumor studies were collected from the third passage to the 20th passage. After the 20th passage the cells were no longer used for experimental studies. Newly established cells were derived from the frozen cells prepared as described above.
(§3) Groups (five mice per group) of female BDFI mice (Charles Rivers, Canada) were injected (intraperitoneal) with 10^6 P388 cells (as described above). One day after tumor cell inoculation, the mice were given a bolus intravenous injection of indicated drug via the lateral tail vein. […] Following administration of the test articles, animals were weighed daily for fourteen days and monitored for signs of stress twice daily for the first 14 days (once daily on weekends) and once daily for the remainder of the study. Severely distressed animals were terminated by CO2 asphyxiation and the time of death was recorded to occur on the following day. […]

P388 tumor = assay: as above; assay type: in vivo
Method: as §1, §2, §3

[5] = weight loss / toxicity in BDF1 mice bearing P388 tumours (FIG. 4); assay type: in vivo
Method: Groups (five mice per group) of female BDFI mice (Charles Rivers, Canada) were injected (intraperitoneal) with 10^6 P388 cells (as described above). One day after tumor cell inoculation, the mice were given a bolus intravenous injection of indicated drug via the lateral tail vein. Control groups were injected with saline. Free drug samples were prepared on the day of injection such that the final concentrations were sufficient to deliver the indicated drug dose in a volume of 200 μl. All dilutions were made using 0.9% Sodium Chloride Injection USP. The mice were briefly (less than 30 sec.) restrained during intravenous injections. Dilation of the vein was achieved by holding the animals under a heat lamp for a period of between five and ten minutes. Following administration of the test articles, animals were weighed daily for fourteen days and monitored for signs of stress twice daily for the first 14 days (once daily on weekends) and once daily for the remainder of the study. Severely distressed animals were terminated by CO2 asphyxiation and the time of death was recorded to occur on the following day. Although complete dose titrations were completed for each drug, the data shown in FIG. 6 is that obtained after administration of the free drugs at their maximum tolerated dose. This was 3, 40 and 40 mg/kg for vincristine, navelbine and AHVB, respectively.
After treating mice (bearing the P388 tumor) with a single dose of the indicated drug, animals were examined twice daily for the first 14 days (once daily on weekends). Weight gain in the control is an indication of tumor progression.
The studies were conducted as described for FIG. 6. The maximum tolerated dose of AHVB (40 mg/kg) as specified in these studies reflects a very acute (within 1 hour) toxic reaction that limits further dose excalatin for i.v. administration of AHVB.

murine P388 leukemia = settings: cited from earlier work
[6] = test system: cells derived from human lung cancer; settings: cited from earlier work
[7] = test system: non-small cell lung cancer; settings: patients; cited from earlier work

CC[C@]1(O)C[C@H]2CN(CCc3c([nH]c4ccccc34)[C@@](C(=O)OC)(c3cc4c(cc3OC)N(C=O)[C@H]3[C@@](O)(C(=O)OC)[C@H](OC(C)=O)[C@]5(CC)C=CCN6CC[C@]43[C@@H]65)C2)C1 [vincristine, Sulfate of 22-oxovincaleukoblastine]
potency in blocking fast axoplasmic transport [1]: more potent than vinblastine or vindesine | terminal elimination phase of plasma clearance [2]: extended terminal elimination phase of plasma clearance | dose limiting toxicity [3]: peripheral neuropathy (in the absence of hematological toxicity) | other adverse reactions reported ([3]; i.v.): abdominal cramps, ataxia, foot drop, weight loss, optic atrophy with blindness, transient cortical blindness, fever, cranial nerve manifestations, parehesia and numbness of the digits, polyuria, dysuria, oral ulceration, headache, vomiting, diarrhea, and intestinal necrosis and/or perforation | intrathecal administration outcome ([3]; intrathecal): uniformly fatal | adverse reactions that can occur with single weekly doses ([3]; single weekly doses, i.v.): leukopenia, neuritic pain, constipation, and difficulty in walking | most common adverse reaction ([3]; single weekly doses): hair loss | most troublesome adverse reactions ([3]; single weekly doses): neuromuscular in origin | uptake into nerves, times faster than the other drugs (nerves): 4 times

CCC1=CC2CN(CCc3c([nH]c4ccccc34)C(C(=O)OC)(c3cc4c(cc3OC)N(C)C3C(O)(C(=O)OC)C(OC(C)=O)C5(CC)C=CCN6CCC43C65)C2)C1 (centres unmarked) [AHVB, 3',4'-anhydrovinblastine]
IC50 (C-4 cells): 0.02 µM | IC50 (SKOV3 cells): 4 µM | MTD [4]: 40 mg/kg | times less toxic (on a weight basis) than vincristine (P388 tumor; BDF1 mice bearing P388, single i.v.): approximately 10 times | antitumor activity (number of long term survivors, >60 days) (P388 tumor; maximum tolerated dose, AHVB 40 mg/kg vs vincristine 3 mg/kg, single i.v.): significantly better than that observed for vincristine | in vivo antitumor efficacy relative to other vinca alkaloids such as vincristine and navelbine (P388 tumor; overall conclusion): significant improvements in in vivo antitumor efficacy | time of very acute toxic reaction that limits dose escalation ([5]; i.v., at maximum tolerated dose 40 mg/kg): ≤ 1 h | toxicity ranking (vinca alkaloid induced weight loss) ([5]; single i.v. injection at maximum tolerated dose, AHVB 40 mg/kg): least toxic of the three drugs evaluated

CCC1=C[C@@H]2CN(C1)Cc1c([nH]c3ccccc13)[C@@](C(=O)OC)(c1cc3c(cc1OC)N(C)[C@H]1[C@@](O)(C(=O)OC)[C@H](OC(C)=O)[C@]4(CC)C=CCN5CC[C@]31[C@@H]54)C2 [navelbine, 3',4'-didehydro-4'-deoxy-C'-norvincaleukoblastine-di-L-tartrate]
dose limiting toxicity [3]: hematological toxicities and not neurological side effects | local side effects ([3]; intravenous): phlebitia or extravasion injury as it is a moderate vasicant | incidence of constipation, vomiting, diarrhea, anorexia, and stomatitis ([3]; patients, relative to nausea): slightly lesser fraction | incidence of mild to moderate nausea ([3]; patients): roughly one-third | incidence of mild to moderate peripheral neuropathy (paresthesia and hypesthesia) ([3]; single agent): 10 % of patients | potency against murine P388 leukemia (murine P388 leukemia): less potent than vinbiastine and vincristine | activity against cells derived from human lung cancer [6]: active | clinical utility in non-small cell lung cancer [7]: support its utility in treating non-small cell lung cancer | toxicity at maximum tolerated dose ([5]; i.v., compared with acute toxicity of AHVB): more prolonged toxicity
